# Reference: ChEMBL document CHEMBL6182925 (J Med Chem, 2025)
# Assays:
# [1] = Kinetic solubility of compound at pH 2; assay type: physicochemical; details: buffer, read-out: Kinetic_solubility
# [2] = Kinetic solubility of compound at pH 4.5; assay type: physicochemical; details: buffer, read-out: Kinetic_solubility
# [3] = molecular target: T1, Alpha-2A adrenergic receptor (Homo sapiens) (UniProt P08913); assay: Inhibition of alpha 2A adrenergic receptor (unknown origin) at 10 uM by CEREP analysis relative to control
# T1 sequence (whole entry): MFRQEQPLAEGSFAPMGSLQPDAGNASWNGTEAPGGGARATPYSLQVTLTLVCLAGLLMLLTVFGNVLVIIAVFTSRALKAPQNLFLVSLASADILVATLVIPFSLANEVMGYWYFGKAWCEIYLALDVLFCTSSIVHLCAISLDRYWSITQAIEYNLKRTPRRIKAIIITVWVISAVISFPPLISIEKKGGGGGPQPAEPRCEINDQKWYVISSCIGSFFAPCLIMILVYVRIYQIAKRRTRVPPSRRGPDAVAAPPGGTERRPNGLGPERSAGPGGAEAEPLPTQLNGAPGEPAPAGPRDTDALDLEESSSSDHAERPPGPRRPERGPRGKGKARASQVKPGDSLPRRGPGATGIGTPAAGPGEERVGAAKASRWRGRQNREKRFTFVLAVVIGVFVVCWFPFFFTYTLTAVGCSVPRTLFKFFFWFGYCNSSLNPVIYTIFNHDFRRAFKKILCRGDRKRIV
# [4] = molecular target: hERG (Homo sapiens, UniProt Q12809); assay: Inhibition of hERG at 10 uM by CEREP analysis relative to control; assay type: toxicity
# hERG, sequence (Q12809 whole entry): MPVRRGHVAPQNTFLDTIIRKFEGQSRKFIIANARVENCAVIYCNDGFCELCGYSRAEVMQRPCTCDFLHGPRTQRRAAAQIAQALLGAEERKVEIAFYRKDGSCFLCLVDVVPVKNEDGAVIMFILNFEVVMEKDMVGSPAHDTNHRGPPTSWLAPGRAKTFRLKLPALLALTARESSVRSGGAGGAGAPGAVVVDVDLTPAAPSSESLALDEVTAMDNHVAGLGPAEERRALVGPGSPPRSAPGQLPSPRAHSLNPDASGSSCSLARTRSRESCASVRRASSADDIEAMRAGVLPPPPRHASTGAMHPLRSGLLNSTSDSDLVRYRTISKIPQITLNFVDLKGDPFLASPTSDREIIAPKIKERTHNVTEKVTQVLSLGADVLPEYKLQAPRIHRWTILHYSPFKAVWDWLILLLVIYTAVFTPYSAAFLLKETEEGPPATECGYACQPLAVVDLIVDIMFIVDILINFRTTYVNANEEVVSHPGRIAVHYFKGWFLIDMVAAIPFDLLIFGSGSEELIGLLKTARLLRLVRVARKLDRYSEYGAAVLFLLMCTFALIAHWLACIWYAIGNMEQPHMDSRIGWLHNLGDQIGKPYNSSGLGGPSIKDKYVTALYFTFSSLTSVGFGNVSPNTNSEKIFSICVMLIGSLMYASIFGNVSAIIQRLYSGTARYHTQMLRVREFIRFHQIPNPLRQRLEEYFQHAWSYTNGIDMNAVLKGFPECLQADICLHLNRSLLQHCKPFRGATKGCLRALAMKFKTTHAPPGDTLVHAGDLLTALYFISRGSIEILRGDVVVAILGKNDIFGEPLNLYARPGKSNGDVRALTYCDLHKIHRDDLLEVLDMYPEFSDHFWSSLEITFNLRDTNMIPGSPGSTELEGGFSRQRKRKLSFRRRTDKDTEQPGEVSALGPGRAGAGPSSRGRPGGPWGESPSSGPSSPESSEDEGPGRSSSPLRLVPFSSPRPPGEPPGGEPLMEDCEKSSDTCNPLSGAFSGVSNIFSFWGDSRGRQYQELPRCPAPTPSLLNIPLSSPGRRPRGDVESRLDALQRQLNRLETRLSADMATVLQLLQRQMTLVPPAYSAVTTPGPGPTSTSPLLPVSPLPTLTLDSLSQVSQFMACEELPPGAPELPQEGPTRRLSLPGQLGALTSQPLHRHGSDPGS
# [5] = molecular target: 5-hydroxytryptamine receptor 1B (Homo sapiens) (UniProt P28222); assay: Inhibition of 5-HT1B receptor (unknown origin) at 10 uM by CEREP analysis relative to control
# 5-hydroxytryptamine receptor 1B (Homo sapiens), sequence (P28222 whole entry): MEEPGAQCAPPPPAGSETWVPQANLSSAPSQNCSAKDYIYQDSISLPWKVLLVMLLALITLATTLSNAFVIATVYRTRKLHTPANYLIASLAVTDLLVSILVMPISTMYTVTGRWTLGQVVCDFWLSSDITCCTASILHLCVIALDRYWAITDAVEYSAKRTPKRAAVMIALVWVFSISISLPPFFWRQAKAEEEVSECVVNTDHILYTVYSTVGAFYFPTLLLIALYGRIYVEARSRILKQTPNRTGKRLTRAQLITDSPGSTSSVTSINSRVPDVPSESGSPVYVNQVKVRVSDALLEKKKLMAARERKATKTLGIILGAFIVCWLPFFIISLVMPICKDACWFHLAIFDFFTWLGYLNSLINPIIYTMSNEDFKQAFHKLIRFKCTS
# [6] = molecular target: 5-hydroxytryptamine receptor 2B (Homo sapiens) (UniProt P41595); assay: Inhibition of 5-HT2B receptor (unknown origin) at 10 uM by CEREP analysis relative to control
# 5-hydroxytryptamine receptor 2B (Homo sapiens), sequence (P41595 whole entry): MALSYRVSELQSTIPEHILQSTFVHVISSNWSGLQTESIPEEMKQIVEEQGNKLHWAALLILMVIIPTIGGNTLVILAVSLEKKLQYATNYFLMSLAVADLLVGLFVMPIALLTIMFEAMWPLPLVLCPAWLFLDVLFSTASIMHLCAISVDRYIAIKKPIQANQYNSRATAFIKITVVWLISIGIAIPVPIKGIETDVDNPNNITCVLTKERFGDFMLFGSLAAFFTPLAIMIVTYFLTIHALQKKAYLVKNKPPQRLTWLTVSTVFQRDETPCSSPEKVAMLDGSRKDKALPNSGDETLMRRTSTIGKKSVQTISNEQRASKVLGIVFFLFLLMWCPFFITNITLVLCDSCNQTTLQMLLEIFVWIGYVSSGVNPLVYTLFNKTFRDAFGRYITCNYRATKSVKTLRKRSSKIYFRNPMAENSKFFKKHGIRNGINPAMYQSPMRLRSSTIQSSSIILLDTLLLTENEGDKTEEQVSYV
# [7] = species: Homo sapiens; assay: Inhibition of sodium channel site 2 (unknown origin) at 10 uM by CEREP analysis relative to control
# [8] = molecular target: L-type calcium channel (Homo sapiens, UniProt O60840+Q01668+Q13698+Q13936); assay: Inhibition of Calcium channel L-type (unknown origin) at 10 uM by CEREP analysis relative to control; assay type: protein assay
# [9] = molecular target: Sodium-dependent serotonin transporter (Homo sapiens) (UniProt P31645); assay: Inhibition of SERT (unknown origin) at 10 uM by CEREP analysis relative to control
# Sodium-dependent serotonin transporter (Homo sapiens), sequence (P31645 whole entry, looked up): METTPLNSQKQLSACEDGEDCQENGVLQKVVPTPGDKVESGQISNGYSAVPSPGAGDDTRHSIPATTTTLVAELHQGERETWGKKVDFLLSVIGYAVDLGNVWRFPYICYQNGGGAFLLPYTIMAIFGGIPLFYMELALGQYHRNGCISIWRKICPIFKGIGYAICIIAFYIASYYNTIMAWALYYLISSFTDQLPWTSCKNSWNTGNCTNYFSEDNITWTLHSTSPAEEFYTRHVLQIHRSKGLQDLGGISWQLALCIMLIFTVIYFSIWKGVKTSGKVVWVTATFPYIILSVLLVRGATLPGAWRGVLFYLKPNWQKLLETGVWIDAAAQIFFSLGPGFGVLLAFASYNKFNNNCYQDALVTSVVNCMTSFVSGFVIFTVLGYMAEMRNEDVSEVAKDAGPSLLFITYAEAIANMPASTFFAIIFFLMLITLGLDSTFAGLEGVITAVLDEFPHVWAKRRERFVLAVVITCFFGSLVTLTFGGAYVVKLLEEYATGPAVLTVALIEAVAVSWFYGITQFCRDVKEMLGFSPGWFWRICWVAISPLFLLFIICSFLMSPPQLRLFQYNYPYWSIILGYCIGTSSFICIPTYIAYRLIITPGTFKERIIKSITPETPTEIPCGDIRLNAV
# [10] = molecular target: cGMP-inhibited 3',5'-cyclic phosphodiesterase 3A (Homo sapiens) (UniProt Q14432); assay: Inhibition of PDE3A (unknown origin) at 10 uM by CEREP analysis relative to control
# cGMP-inhibited 3',5'-cyclic phosphodiesterase 3A (Homo sapiens), sequence (Q14432 whole entry): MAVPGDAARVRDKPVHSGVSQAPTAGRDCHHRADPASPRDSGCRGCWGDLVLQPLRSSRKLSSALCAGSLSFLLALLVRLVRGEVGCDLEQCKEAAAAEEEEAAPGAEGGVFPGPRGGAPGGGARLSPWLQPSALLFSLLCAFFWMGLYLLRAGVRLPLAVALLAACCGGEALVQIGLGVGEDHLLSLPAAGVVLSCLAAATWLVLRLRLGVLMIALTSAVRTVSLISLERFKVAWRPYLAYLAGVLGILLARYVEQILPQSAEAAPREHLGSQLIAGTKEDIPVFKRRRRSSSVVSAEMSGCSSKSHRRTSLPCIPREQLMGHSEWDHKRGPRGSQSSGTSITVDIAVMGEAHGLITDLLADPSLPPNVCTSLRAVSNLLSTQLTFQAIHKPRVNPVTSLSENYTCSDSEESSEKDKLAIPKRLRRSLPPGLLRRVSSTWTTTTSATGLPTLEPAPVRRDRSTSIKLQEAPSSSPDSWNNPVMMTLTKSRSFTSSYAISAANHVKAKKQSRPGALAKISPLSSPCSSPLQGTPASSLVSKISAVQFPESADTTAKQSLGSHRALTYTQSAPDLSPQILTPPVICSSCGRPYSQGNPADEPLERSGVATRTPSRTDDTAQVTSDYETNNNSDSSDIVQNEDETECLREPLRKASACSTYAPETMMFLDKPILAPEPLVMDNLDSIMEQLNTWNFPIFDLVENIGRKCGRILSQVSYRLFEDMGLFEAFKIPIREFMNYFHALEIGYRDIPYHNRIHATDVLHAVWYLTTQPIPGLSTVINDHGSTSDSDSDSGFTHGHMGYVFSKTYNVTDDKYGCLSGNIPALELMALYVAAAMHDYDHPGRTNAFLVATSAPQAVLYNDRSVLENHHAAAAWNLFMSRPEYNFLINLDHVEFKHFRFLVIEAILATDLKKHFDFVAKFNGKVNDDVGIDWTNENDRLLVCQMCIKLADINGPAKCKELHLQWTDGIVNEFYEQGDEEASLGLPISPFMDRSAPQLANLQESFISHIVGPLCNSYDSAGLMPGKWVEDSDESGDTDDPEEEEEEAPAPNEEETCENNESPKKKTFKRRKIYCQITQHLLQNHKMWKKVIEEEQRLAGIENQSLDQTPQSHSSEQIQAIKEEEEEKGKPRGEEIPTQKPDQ
# [11] = molecular target: 3',5'-cyclic-AMP phosphodiesterase 4D (Homo sapiens) (UniProt Q08499); assay: Inhibition of PDE4D2 (unknown origin) at 10 uM by CEREP analysis relative to control
# 3',5'-cyclic-AMP phosphodiesterase 4D (Homo sapiens), sequence (Q08499 whole entry): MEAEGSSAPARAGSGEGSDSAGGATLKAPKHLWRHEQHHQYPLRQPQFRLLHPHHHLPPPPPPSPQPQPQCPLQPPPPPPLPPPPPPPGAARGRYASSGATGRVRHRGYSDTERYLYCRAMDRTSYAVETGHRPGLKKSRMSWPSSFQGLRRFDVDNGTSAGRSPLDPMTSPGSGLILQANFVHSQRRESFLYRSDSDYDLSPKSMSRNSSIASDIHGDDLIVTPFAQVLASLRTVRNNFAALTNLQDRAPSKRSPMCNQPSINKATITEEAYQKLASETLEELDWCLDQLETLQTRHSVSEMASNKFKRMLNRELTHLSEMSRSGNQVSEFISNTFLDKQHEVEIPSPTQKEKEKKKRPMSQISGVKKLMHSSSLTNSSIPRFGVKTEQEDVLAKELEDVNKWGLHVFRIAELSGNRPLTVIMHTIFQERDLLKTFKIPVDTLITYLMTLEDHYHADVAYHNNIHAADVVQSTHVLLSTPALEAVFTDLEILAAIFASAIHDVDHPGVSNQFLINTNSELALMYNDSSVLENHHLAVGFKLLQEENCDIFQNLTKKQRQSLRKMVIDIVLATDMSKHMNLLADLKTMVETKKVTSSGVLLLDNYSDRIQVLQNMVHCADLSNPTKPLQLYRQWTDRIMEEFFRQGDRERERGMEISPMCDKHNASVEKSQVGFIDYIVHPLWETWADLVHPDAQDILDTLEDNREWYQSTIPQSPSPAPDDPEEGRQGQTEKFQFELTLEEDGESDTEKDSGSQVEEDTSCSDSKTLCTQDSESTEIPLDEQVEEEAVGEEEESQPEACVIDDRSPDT
# [12] = Half life in female Balb/c mouse at 5 mg/kg, iv; assay type: ADME, organism-based; details: in vivo
# [13] = Clearance in female Balb/c mouse at 5 mg/kg, iv; assay type: ADME, organism-based; details: in vivo
# [14] = AUClast in Balb/c mouse at 10 mg/kg, po; assay type: ADME, organism-based; details: in vivo
# [15] = Oral bioavailability in Balb/c mouse at 10 mg/kg; assay type: ADME, organism-based; details: in vivo
# [16] = Half life in male Sprague-Dawley rat at 3 mg/kg, iv; assay type: ADME, organism-based; details: in vivo
# [17] = Clearance in male Sprague-Dawley rat at 3 mg/kg, iv; assay type: ADME, organism-based; details: in vivo
# [18] = AUClast in male Sprague-Dawley rat at 10 mg/kg, po; assay type: ADME, organism-based; details: in vivo
# [19] = Oral bioavailability in male Sprague-Dawley rat at 10 mg/kg; assay type: ADME, organism-based; details: in vivo
# [20] = Half life in male Beagle dog at 2 mg/kg, iv; assay type: ADME, organism-based, Canis lupus familiaris; details: in vivo
# [21] = Clearance in male Beagle dog at 2 mg/kg, iv; assay type: ADME, organism-based, Canis lupus familiaris; details: in vivo
# [22] = AUClast in male Beagle dog at 15 mg/kg, po; assay type: ADME, organism-based, Canis lupus familiaris; details: in vivo
# [23] = Oral bioavailability in male Beagle dog at 15 mg/kg; assay type: ADME, organism-based, Canis lupus familiaris; details: in vivo
# [24] = Stability in mouse hepatocytes measured for 127 mins; assay type: ADME, cell-based, Hepatocyte; details: 2.117 h
# [25] = Stability in rat hepatocytes measured for 175 mins; assay type: ADME, cell-based, Hepatocyte; details: 2.917 h
# [26] = Stability in dog hepatocytes; assay type: ADME, cell-based, Canis lupus familiaris, Hepatocyte
# [27] = Stability in monkey hepatocytes measured for 75 mins; assay type: ADME, cell-based, Macaca mulatta, Hepatocyte; details: rhesus monkey, 1.25 h
# [28] = Stability in human hepatocytes; assay type: ADME, cell-based, Hepatocyte
# [29] = Volume of distribution in female Balb/c mouse at 5 mg/kg, iv; assay type: ADME, organism-based; details: in vivo
# [30] = Volume of distribution in male Sprague-Dawley rat at 3 mg/kg, iv; assay type: ADME, organism-based; details: in vivo
# [31] = Volume of distribution in male Beagle dog at 2 mg/kg, iv; assay type: ADME, organism-based, Canis lupus familiaris; details: in vivo
# [32] = Dose-normalized AUC in male Sprague-Dawley rat at 10 mg/kg, po; assay type: ADME, organism-based; details: in vivo
# [33] = Dose-normalized AUC in female Balb/c mouse at 10 mg/kg, po; assay type: ADME, organism-based; details: in vivo
# [34] = Dose-normalized AUC in male Beagle dog at 15 mg/kg, po; assay type: ADME, organism-based, Canis lupus familiaris; details: in vivo
# [35] = Oral bioavailability in female Balb/c mouse at 30 mg/kg; assay type: ADME, organism-based; details: in vivo
# [36] = Oral bioavailability in male Sprague-Dawley rat at 30 mg/kg; assay type: ADME, organism-based; details: in vivo
# [37] = Oral bioavailability in male Beagle dog at 30 mg/kg; assay type: ADME, organism-based, Canis lupus familiaris; details: in vivo
# [38] = cells; details: Mus musculus, BaF3/TRP-Met, 72 h
# [39] = tested on: BaF3; assay: cells; details: Mus musculus, BaF3, 72 h
# [40] = tested on: BaF3; assay: Antitumor activity against mouse BaF3 cells harboring TPR-D1228N mutant cells allografted in athymic BALB/c nude mouse at 10 mg/kg, po bid treated for 10 days relative to control; assay type: functional; details: BaF3, 240 h, time 10 day, read-out: TGI
compound,measurement,setting,value
COc1cc2nccc(Oc3c(F)cc(NC(=O)c4cnccc4OC)cc3F)c2cc1OCCO,solubility kinetic,[1],279 µM
same,solubility kinetic,[2],12.7 µM
same,inhibition,[3],11%
same,inhibition at 10 µM,[4],8%
same,inhibition,[5],16%
same,inhibition,[6],16%
same,inhibition,[7],25%
same,inhibition at 10 µM,[8],6%
same,inhibition,[9],10%
same,inhibition,[10],34%
same,inhibition,[11],31%
same,half-life,[12],2.1 h
same,clearance,[13],4.11 mL/min/kg
same,AUC(0-t),[14],8220 ng·h/mL
same,bioavailability,[15],20%
same,half-life,[16],3 h
same,clearance,[17],4.8 mL/min/kg
same,AUC(0-t),[18],28200 ng·h/mL
same,bioavailability,[19],61%
same,half-life,[20],7.1 h
same,clearance,[21],6.7 mL/min/kg
same,AUC(0-t),[22],7170 ng·h/mL
same,bioavailability,[23],18%
same,Stability,[24],Stable
same,Stability,[25],Stable
same,Stability,[26],Stable
same,Stability,[27],Stable
same,Stability,[28],Stable
same,Vd,[29],0.38 L/kg
same,Vd,[30],0.68 L/kg
same,Vd,[31],2.25 L/kg
same,AUC/dose,[32],2040 ng.h/mL per mg/kg
same,AUC/dose,[33],822 ng.h/mL per mg/kg
same,AUC/dose,[34],464 ng.h/mL per mg/kg
same,bioavailability,[35],13%
same,bioavailability,[36],34%
same,bioavailability,[37],8%
same,EC50,[38],64 nM
same,EC50,[39],40 nM
CNC(=O)c1ccc(-c2cnc3ncc(Cc4ccc5ncccc5c4)n3n2)cc1F [CAPMATINIB],solubility kinetic,[1],279 µM
same,solubility kinetic,[2],17.5 µM
same,inhibition in vivo at 10 mg/kg,[40],17%
